Calls of active or inactive are those of the source.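 Rule for the calls: active = EGFP signal decrease of at least 30% at 10 µM or well 3 SD below plate mean, unless failing retest; inactive = the rest, including hits failing retest or dose response.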
The compounds below were run against p/CIP-EGFP fusion (nuclear receptor coactivator 3, mouse) (UniProt Q05BA5) (assay: p/CIP-EGFP fusion destabilizers, primary screen, fluorescence, F442A cells (AID 1984;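 note: dose response run in MEF cells carrying p/CIP-EGFP rather than F442A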)). Conditions: 16 h.
Sequence of p/CIP-EGFP fusion (nuclear receptor coactivator 3, mouse) (Q05BA5 1-1403): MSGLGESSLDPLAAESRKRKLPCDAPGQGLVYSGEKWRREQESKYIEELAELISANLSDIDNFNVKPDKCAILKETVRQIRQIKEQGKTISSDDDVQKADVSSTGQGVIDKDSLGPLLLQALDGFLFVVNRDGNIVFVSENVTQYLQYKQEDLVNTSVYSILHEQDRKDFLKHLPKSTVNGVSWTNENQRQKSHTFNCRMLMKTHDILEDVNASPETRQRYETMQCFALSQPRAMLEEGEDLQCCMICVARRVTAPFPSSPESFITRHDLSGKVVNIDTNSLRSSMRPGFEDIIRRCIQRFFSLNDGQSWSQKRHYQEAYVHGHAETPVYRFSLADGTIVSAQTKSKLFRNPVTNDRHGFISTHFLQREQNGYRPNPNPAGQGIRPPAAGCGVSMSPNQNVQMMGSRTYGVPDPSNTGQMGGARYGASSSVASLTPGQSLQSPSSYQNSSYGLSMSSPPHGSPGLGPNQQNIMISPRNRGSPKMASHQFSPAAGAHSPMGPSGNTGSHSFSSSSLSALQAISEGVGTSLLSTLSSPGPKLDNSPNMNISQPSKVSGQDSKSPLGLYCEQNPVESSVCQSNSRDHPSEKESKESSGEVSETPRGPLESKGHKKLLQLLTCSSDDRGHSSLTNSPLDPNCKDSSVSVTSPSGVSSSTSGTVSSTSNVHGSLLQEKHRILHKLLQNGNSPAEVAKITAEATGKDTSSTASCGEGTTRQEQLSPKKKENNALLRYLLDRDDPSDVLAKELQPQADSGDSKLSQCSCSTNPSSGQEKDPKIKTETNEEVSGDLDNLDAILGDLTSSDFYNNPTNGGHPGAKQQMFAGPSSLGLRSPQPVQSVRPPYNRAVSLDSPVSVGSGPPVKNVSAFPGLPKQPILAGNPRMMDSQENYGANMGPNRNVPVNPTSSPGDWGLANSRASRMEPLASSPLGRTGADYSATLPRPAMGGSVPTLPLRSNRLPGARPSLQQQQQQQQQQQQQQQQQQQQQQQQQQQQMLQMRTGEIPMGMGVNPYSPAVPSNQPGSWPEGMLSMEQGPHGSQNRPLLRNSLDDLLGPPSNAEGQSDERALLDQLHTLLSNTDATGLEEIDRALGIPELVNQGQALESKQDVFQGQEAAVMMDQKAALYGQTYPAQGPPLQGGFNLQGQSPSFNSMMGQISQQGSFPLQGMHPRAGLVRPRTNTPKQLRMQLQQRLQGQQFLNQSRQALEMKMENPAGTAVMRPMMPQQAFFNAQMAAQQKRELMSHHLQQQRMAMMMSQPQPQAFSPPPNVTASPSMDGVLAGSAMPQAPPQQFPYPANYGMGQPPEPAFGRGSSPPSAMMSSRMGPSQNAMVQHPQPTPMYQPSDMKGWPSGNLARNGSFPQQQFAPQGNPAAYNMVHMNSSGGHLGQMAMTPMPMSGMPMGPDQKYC

Structure (SMILES)	IC50
COc1ccc(NC(=O)/C(Cl)=C(/Cl)S(=O)Cc2ccc(Cl)cc2)cn1 (centres undefined)	inactive
Cc1ccccc1NC1=C/C(=N\S(=O)(=O)c2cccs2)c2ccccc2C1=O	16.4 µM
COc1ccc(CS(=O)/C(Cl)=C(/Cl)C(=O)Nc2ccc(OC)nc2)cc1 (centres undefined)	16.6 µM
CCCc1nc2c(=O)n(C)c(=O)nc-2n(C)n1	5 µM
CC(C)(C)c1cc[n+](C2=C([O-])c3ccccc3C(=O)/C2=N\S(=O)(=O)c2cccs2)cc1	27 µM
Cc1ccc(NC2=C/C(=N\S(=O)(=O)c3cccs3)c3ccccc3C2=O)c(C)c1	19.4 µM
Nc1ccc2c(c1)C(=O)C(=O)c1ccccc1-2	14.6 µM
CCOC(=O)N=Nc1c2ccccc2c2nc3no[nH]c3nc12	18.8 µM
O=C1C(Cl)=C(NCCN2CCCCC2)C(=O)c2ccccc21	14.8 µM

Continued by falling IC50, values first:

IC50	Structure (SMILES)
4.3 µM	Cc1oc2c(c1C(=O)NCc1cccnc1)C(=O)c1ccccc1C2=O
3.77 µM	O=C1C(Nc2ccccc2)=C/C(=N/S(=O)(=O)c2cccs2)c2ccccc21
3.43 µM	CCOC(=O)c1c(C)[nH]c2c1-c1ccccc1C(=O)C2=O
2.69 µM	O=C1C(Nc2ccc(O)cc2)=C/C(=N/S(=O)(=O)c2cccs2)c2ccccc21
2.3 µM	CC1CCN(S(=O)(=O)c2ccc3c(c2)C(=NO)c2cc(S(=O)(=O)N4CCC(C)CC4)ccc2-3)CC1
